Test results as given in the METLIN SMRT retention time set (Domingo-Almenara et al. 2019).

Test: gradient 5% acetonitrile 3 min, to 50% in 2 min, to 85% in 15 min, held 3 min, 100 µL/min
Conditions: column: Zorbax Extend-C18 2.1 x 50 mm; eluents: water / acetonitrile, 0.1% formic acid
Summary of the method: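 Retention times come from adduct peaks that were picked computationally and then checked by hand. The standards, pure and pooled in mixtures of ~100 molecules, were run on a Zorbax Extend-C18 column (2.1 × 50 mm, 1.8 μm) at 100 μL/min with water and acetonitrile, each with 0.1% formic acid. Detection was by quadrupole time-of-flight mass spectrometry in positive and negative ionization mode, with a dead volume of 40 μL and a dwell volume of 900 μL.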

| Structure (SMILES) | RP-LC retention time |
| --- | --- |
| Cc1ccc(CN2CCN(C3CCN(S(=O)(=O)c4ccc(F)c(Cl)c4)CC3)C(=O)C2=O)cc1 | 926 s |
| O=C(c1ccsc1)N1CCCC1c1nc(CCOCC2CCCC2)no1 (stereo unspecified) | 980 s |
| CC(C)c1ccc(NC(=O)Cn2nc(N3CCOCC3)c3ccccc3c2=O)cc1 | 905 s |
| Cc1ccc2c(c1)N(S(C)(=O)=O)CCC(C(=O)NCc1ccc(Cl)cc1)O2 (stereo unspecified) | 954 s |
| CCOCCCNC(=O)c1nnc(-c2ccc(S(=O)(=O)N3CCC(C)CC3)cc2)o1 | 924 s |
| COC(=O)c1c(C)[nH]c(C(=O)N2CCCC(C(=O)NCc3ccc(C)cc3)C2)c1C (stereo unspecified) | 754 s |
| CCOc1cc(=O)n2c(c1C(=O)NCCOC)CCCCC2 | 600 s |
| Cc1ccc2nc(NC(=O)CSc3ccc(-n4cccn4)nn3)sc2c1 | 844 s |
| Cc1cccc(CNC(=O)C2CCN(C(=O)C3Sc4ccccc4NC3=O)CC2)c1 (stereo unspecified) | 762 s |
| COc1ccc(-c2nc3ccccn3c2Nc2ccc(C)cc2)cc1O | 663 s |
| Cc1noc2nc(CCC(=O)NCCCN3CCc4ccccc4C3)nc(N3CCC(C)CC3)c12 | 703 s |
| O=C(Cc1nc(-c2ccccn2)n[nH]1)Nc1ccc(Cl)cc1 | 666 s |
| COc1ccccc1N1CCN(S(=O)(=O)c2cc(-c3csc(C)n3)ccc2C)CC1 | 1160 s |
| CCCN(C)c1nccnc1OC1CCN(C(=O)CC(C)C)C1 (stereo unspecified) | 835 s |
| COC(=O)C1=CN(C2CC2)c2cc(N3CCN(C(C)C)CC3)c(F)cc2S1(=O)=O | 740 s |
| Cc1cc(C(=O)NC2CC2)c2cc(Cl)ccc2n1 | 669 s |
| Cc1ccc(NC(=O)C2CCC(=O)N2S(=O)(=O)c2ccc(C)c(C)c2)cc1C (stereo unspecified) | 1040 s |
| NC(=O)N/N=C1\CC2CC1C1C=CCC21 (stereo unspecified) | 768 s |
| CCCN1CCN(S(=O)(=O)c2cc(-c3[nH]ncc3C(=O)N(C)C)oc2C)CC1 | 566 s |
| O=C(NCc1ccccc1F)c1ccc(CN2CCN(Cc3ccccc3)C(=O)C2=O)cc1 | 770 s |
| CCc1cccc(NC(=O)Cn2cnc3nc(N4CCCC(C(=O)NC(C)C)C4)sc3c2=O)c1 (stereo unspecified) | 755 s |
| O=S(=O)(c1ccc(F)cc1F)N1CCC(CN2CCCCCC2)CC1 | 648 s |

| Structure (SMILES) | RP-LC retention time |
| --- | --- |
| Cc1ccc(-c2csc(NC(=O)Cn3c(=O)sc4ccccc43)n2)cc1 | 1010 s |
| Cc1ccc2c(c1)OCC(=O)N2Cc1nc(-c2cccc(Br)c2)no1 | 1180 s |
| Cc1ccc(Nc2cc(C)nc3ccnn23)cc1 | 620 s |
| O=S(=O)(Nc1ccc(F)cc1)c1cccnc1Nc1ccc(Cl)cc1 | 1120 s |
| O=S(=O)(c1ccccc1)N1CCC(c2noc(-c3cccc(F)c3)n2)CC1 | 1110 s |
| COCCc1noc(C2Cc3ccccc3N2C(=O)Nc2ccc(OC)c(OC)c2)n1 (stereo unspecified) | 851 s |
| COc1cccc(CNc2ccc3[nH]c(=O)[nH]c3c2)c1OC | 593 s |
| O=C(NCc1cccc(Cl)c1)c1c(O)c2cccnc2n(-c2ccccc2)c1=O | 1220 s |
| CC(C)CCN1CCC(N2CCN(S(=O)(=O)c3ccc(F)cc3)CC2)C1=O (stereo unspecified) | 662 s |
| CC(C)n1nnc2cc(S(=O)(=O)N3CCCC(C(=O)N4CCC(C(N)=O)CC4)C3)ccc21 (stereo unspecified) | 652 s |
| CCOC(=O)c1c(N)n(-c2ccccc2)c2nc3ccccc3nc12 | 683 s |
| CC(C)(C)c1ccccc1OCC(=O)Nc1nc(-c2ccccc2)cs1 | 1320 s |
| O=C(Nc1ccc(F)cc1)c1cn(CC(O)c2ccc3c(c2)OCO3)nn1 (stereo unspecified) | 777 s |
| Cc1cccc(-c2nc(Cn3nnc(-c4nc(-c5ccccc5Cl)no4)c3C)c(C)o2)c1 | 908 s |
| CSc1ccc(-c2noc(Cn3c(=O)n(CC4CCCO4)c(=O)c4ccccc43)n2)cc1 (stereo unspecified) | 1070 s |
| O=C(Nc1nnc(Cc2cccs2)o1)c1cc(Cl)sc1Cl | 831 s |
| CCc1noc(NC(C)=O)c1-c1ccc(C)c(S(=O)(=O)Nc2ccc(C)c(Cl)c2)c1 | 914 s |
| CC(C)NC(=O)C1CCC(=O)N1C1CCN(C(=O)C2CCC2)CC1 (stereo unspecified) | 584 s |
| CCOc1cc(C2c3c(n[nH]c3C)C(=O)N2C)ccc1O (stereo unspecified) | 626 s |
| O=C(C1CCN(c2ccc(-c3cccs3)nn2)CC1)N1CCN(c2ccccn2)CC1 | 568 s |
| COCC(=O)N1CCN(C2CCN(CCC(C)C)C2=O)CC1 (stereo unspecified) | 535 s |
| Cc1ccc(-n2c(N)cc(=O)nc2SCC(=O)Nc2nc3ccc(C)cc3s2)cc1 | 686 s |

| Structure (SMILES) | RP-LC retention time |
| --- | --- |
| COC(=O)c1c(NC(=O)N2CCCN(c3nc4cccnc4s3)CC2)sc2c1CCCC2 | 1100 s |
| CCOc1ccc(-c2noc(CN3C(=O)COc4cc(C)ccc43)n2)cc1 | 1110 s |
| COc1ccccc1-c1nnc(-c2cc(S(=O)(=O)N3CCC(C)CC3)ccc2Cl)o1 | 1160 s |
| Cc1cccc(Cn2nc3c(S(=O)(=O)N4CCOCC4)cccn3c2=O)c1 | 777 s |
| O=c1n(Cc2ccccc2)nc2ccc(S(=O)(=O)N3CCCC3)cn12 | 675 s |
| Fc1ccc(OCc2nn3c(CSc4ccccc4)nnc3s2)cc1 | 966 s |
| Cc1nc(N2CCCC(C(=O)Nc3ccc(F)cc3)C2)c2c(C)c(C)oc2n1 (stereo unspecified) | 910 s |
| CN1C(=O)Cc2cc(NC(=O)c3cccs3)ccc21 | 631 s |
| CS(=O)(=O)Nc1ccc([N+](=O)[O-])cc1Oc1ccccc1 | 967 s |
| Cc1nn(CC(=O)N2CCN(c3ccccn3)CC2)c(=O)c2cccn12 | 568 s |
| O=C(NCc1ccc2c(c1)OCO2)C1CCCN(c2ncnc3c2nc2n3CCCCC2)C1 (stereo unspecified) | 750 s |
| O=C(c1cnn2c(-c3ccc4c(c3)OCO4)ccnc12)N1CCN(c2ccccn2)CC1 | 598 s |
| Cc1ccc(C)c(NC(=O)Cn2cnc3nc4c(cc3c2=O)CCCC4)c1 | 705 s |
| CC(C)c1ccc(NC(=O)Cn2nc(N3CCSCC3)c3ccccc3c2=O)cc1 | 1070 s |
| CC1CCN(S(=O)(=O)c2ccc(C(=O)Nc3nc4c(s3)Cc3ccccc3-4)cc2)CC1 | 1230 s |
| O=C(Nc1ccc2c(c1)OCCO2)N1C[C@@H]2C[C@H]1C[C@@H]2NS(=O)(=O)c1ccccc1 | 678 s |
| CC(C)c1noc(-c2cc(=O)n(CC(=O)Nc3ccc(F)cc3)c3ccccc23)n1 | 995 s |
| Cn1nc(C(=O)N2CCCC2)c2c1CCN(C(=O)CCC(=O)NCCN1CCCCCC1)C2 | 586 s |
| COc1ccc(CC(=O)N2CCN(c3cc(C)n4cnnc4n3)CC2)cc1OC | 578 s |
| O=C(CSc1ccc(N2CCCC(C(=O)NC3CC3)C2)nn1)Nc1c(F)cccc1F (stereo unspecified) | 617 s |
| O=C(C1CCN(S(=O)(=O)Cc2ccc(F)cc2)CC1)N1CCOCC1 | 705 s |
| c1ccc(CN2CCC3(CCCc4ccccc43)CC2)cc1 | 834 s |
